# From patent US12162888B2, “Carboxamides as ubiquitin-specific protease inhibitors” (Valo Early Discovery, Inc., priority 2018, dated 2024)
# Target: T1, USP28 (His-tagged USP28-FL-mammalian) (Homo sapiens, UniProt Q96RU2)
# T1 construct: Expression of USP28 (1-1077)-TEV-6*His (pTT5 vector) was carried out in Expi293f cells; made in house; host or cells: Expi293F cells (pTT5 vector)
# T1 sequence (Q96RU2 1-1077): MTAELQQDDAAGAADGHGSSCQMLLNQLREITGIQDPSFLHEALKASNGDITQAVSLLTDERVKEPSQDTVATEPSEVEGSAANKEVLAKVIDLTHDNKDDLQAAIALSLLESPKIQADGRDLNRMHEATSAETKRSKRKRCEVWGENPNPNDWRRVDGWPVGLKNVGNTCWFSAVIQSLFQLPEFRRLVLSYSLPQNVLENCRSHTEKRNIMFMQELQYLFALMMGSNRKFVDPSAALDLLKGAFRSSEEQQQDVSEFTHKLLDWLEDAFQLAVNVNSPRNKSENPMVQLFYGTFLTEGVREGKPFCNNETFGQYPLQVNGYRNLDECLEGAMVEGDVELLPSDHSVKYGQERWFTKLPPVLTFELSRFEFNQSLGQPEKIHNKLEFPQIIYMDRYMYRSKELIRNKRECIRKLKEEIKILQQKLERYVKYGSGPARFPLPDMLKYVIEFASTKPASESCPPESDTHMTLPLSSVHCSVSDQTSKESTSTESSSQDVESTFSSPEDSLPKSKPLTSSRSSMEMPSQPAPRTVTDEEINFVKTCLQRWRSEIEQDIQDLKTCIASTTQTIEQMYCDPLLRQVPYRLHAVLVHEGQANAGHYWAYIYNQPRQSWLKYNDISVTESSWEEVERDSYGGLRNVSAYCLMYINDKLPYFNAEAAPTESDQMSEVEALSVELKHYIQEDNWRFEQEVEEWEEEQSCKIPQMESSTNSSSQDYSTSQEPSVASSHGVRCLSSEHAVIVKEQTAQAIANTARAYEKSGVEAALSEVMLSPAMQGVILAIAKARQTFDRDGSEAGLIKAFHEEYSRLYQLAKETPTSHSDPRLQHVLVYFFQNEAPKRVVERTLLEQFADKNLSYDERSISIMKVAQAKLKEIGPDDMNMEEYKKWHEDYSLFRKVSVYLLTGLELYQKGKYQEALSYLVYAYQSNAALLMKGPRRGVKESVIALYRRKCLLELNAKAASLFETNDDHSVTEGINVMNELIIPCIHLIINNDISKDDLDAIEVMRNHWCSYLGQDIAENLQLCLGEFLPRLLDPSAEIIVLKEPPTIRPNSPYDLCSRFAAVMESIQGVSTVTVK
# Assay: Ubiquitin-Rhodamine 110 Assay for USP28 Activity, Example A-1(a)
# Assay type: biochemical
# Conditions: Ubiquitin-Rhodamine 110 assay, read-out: USP28 A-1(a) IC50 range
# Method: Example A-1(a): Biochemical Assay: Ubiquitin-Rhodamine 110 Assay for USP28 Activity
# The assay was performed in a final volume of 9 μL in assay buffer containing 20 mM Tris-HCl (pH 8.0, (1M Tris-HCl, pH 8.0 solution; Corning 46-031-CM)), 3 mM BME (2-Mercaptoethanol; Sigma 63689-25ML-F), 0.03% BGG (0.22 μM filtered, Sigma, G7516-25G), and 0.01% Triton X-100 (Sigma, T9284-10L). Nanoliter quantities of 10-point, 3-fold serial dilution in DMSO was pre-dispensed into 1536 assay plates (Corning, #3724BC) for a final test concentration of 25 μM to 1.3 nM, top to lowest dose, respectively. Enzyme USP28, construct His-tagged USP28-FL-mammalian, (protein expression and purification procedure described below). Concentration and incubation times were optimized for the maximal signal-to-background while maintaining initial velocity conditions at a fixed substrate concentration. The final concentration of the enzyme in the assay was […]. Final substrate (Ub-Rh110; Ubiquitin-Rhodamine 110, UbiQ-126) concentration was 25 nM with [Ub-Rh110]<<Km. 3 μL of 2× enzyme was added to assay plates (pre-stamped with compound) preincubated with […] for 30 minutes and then 3 μL of 2× Ub-Rh110 was added to assay plates. Plates were incubated for 45 minutes at room temperature before addition of 3 μL of stop solution (final concentration of 10 mM citric acid (Sigma, 251275-500G)). Fluorescence was read on the Envision (Excitation at 485 nm and Emission at 535 nm; Perkin Elmer) or on the PheraSTAR (Excitation at 485 nm and Emission at 535 nm; BMG Labtech).
# Procedure for the Protein expression and purification for construct His-tagged USP28-FL-mammalian
# Expression of USP28 (1-1077)-TEV-6*His (pTT5 vector) was carried out in Expi293f cells (sequence derived from uniprot ID: Q96RU2-1). Cells were re-suspended in lysis buffer B 50 mM Bicine, pH 8.0, 20 mM NaCl, 5% glycerol, 0.1% CHAPS, 5 mM β-ME, 1 mM PMSF, 1 ug/ml Leupeptin, 1 ug/ml Pepstatin) and lysed by sonication. Insoluble material was removed by centrifugation and the supernatant was loaded onto a Ni-NTA column (GE Healthcare) equilibrated with Ni Buffer A (50 mM Bicine, pH 8.0, 20 mM NaCl, 5% glycerol, 0.1% CHAPS, 5 mM R-ME.) and washed with Ni Buffer A+20 mM imidazole until A280 reached baseline. The protein was eluted with Ni Buffer B (50 mM Bicine, pH 8.0, 20 mM NaCl, 5% glycerol, 0.1% CHAPS, 5 mM β-ME, 300 mM imidazole.). The protein was further purified using a Superdex™ 200 10/300 GL column (GE Healthcare) equilibrated with 50 mM Bicine, pH 8.0, 20 mM NaCl, 5% glycerol, 0.1% CHAPS, 5 mM β-ME. The protein was concentrated to 2.5 mg ml-1, flash-frozen in liquid N2 and stored at −80° C.
# For assay formats Example A-1(a), A-1(b), and A-2, data were reported as percent inhibition compared with control wells based on the following equation: % inh=1−((FLU−AveLow)/(AveHigh−AveLow)) where FLU=measured Fluorescence, AveLow=average Fluorescence of no enzyme control (n=16), and AveHighh=average Fluorescence of DMSO control (n=16). IC50 values were determined by curve fitting of the standard 4 parameter logistic fitting algorithm included in the Activity Base software package: IDBS XE Designer Model 205. Data is fitted using the Levenburg Marquardt algorithm.
row,Compound,IC50
1,"Cc1ccc2c(N)c(C(=O)N[C@H]3CCc4nc(N5CC6CC(C5)N6)ccc4C3)sc2n1 [Example 23-10, 3-amino-N-[(6S)-2-{3,6-diazabicyclo[3.1.1]heptan-3-yl}-5,6,7,8-tetrahydroquinolin-6-yl]-6-methylthieno[2,3-b]pyridine-2-carboxamide]",50 to 200 nM
2,"CO[C@@H]1CN(c2ccc3c(c2F)OC[C@H](NC(=O)c2sc4nc(C)ccc4c2N)C3)C[C@H]1N [Example 91, 3-amino-N-[(3R)-7-[(3R,4R)-3-amino-4-methoxypyrrolidin-1-yl]-8-fluoro-3,4-dihydro-2H-1-benzopyran-3-yl]-6-methylthieno[2,3-b]pyridine-2-carboxamide]",200 to 2000 nM
3,"CO[C@]1(C)CN(c2ccc3c(c2)OC[C@H](NC(=O)c2sc4nc(C)ccc4c2N)C3)C[C@H]1N [Example 282, 3-amino-N-[(3R)-7-[(3R,4R)-4-amino-3-methoxy-3-methylpyrrolidin-1-yl]-3,4-dihydro-2H-1-benzopyran-3-yl]-6-methylthieno[2,3-b]pyridine-2-carboxamide]",200 to 2000 nM
4,"Cc1ccc2c(N)c(C(=O)N[C@H]3COc4cc(N5CC[C@@]6(C5)OCC[C@H]6N)ccc4C3)sc2n1 [Example 409, 3-amino-N-[(3R)-7-[(4R,5S)-4-amino-1-oxa-7-azaspiro[4.4]nonan-7-yl]-3,4-dihydro-2H-1-benzopyran-3-yl]-6-methylthieno[2,3-b]pyridine-2-carboxamide]",1 to 50 nM

# Same assay, conditions: Ubiquitin-Rhodamine 110 biochemical assay, read-out: USP28 A-1(a) IC50 range
row,Compound,IC50
1,"3-amino-N-[(6S)-2-[(3R,4S)-3-(methoxymethyl)-4-[(^2H3)methylamino]pyrrolidin-1-yl]-5,6,7,8-tetrahydroquinolin-6-yl]-6-methylthieno[2,3-b]pyridine-2-carboxamide [Example 487]",200 to 2000 nM
2,"3-amino-N-[(6S)-2-[(3S,4R)-3-(methoxymethyl)-4-[(^2H3)methylamino]pyrrolidin-1-yl]-5,6,7,8-tetrahydroquinolin-6-yl]-6-methylthieno[2,3-b]pyridine-2-carboxamide [Example 486]",50 to 200 nM
3,"COCC(F)(F)[C@H]1CN(c2ccc3c(n2)CC[C@H](NC(=O)c2sc4nc(C)ccc4c2N)C3)C[C@@H]1N [Example 480, 3-amino-N-[(6S)-2-[(3R,4S)-3-amino-4-(1,1-difluoro-2-methoxyethyl)pyrrolidin-1-yl]-5,6,7,8-tetrahydroquinolin-6-yl]-6-methylthieno[2,3-b]pyridine-2-carboxamide]",50 to 200 nM
4,"CO[C@@H](C)CO[C@H]1CN(c2ccc3c(n2)CC[C@H](NC(=O)c2sc4nc(C)ccc4c2N)C3)C[C@@H]1N [Example 481, 3-amino-N-[(6S)-2-[(3S,4S)-3-amino-4-[(2S)-2-methoxypropoxy]pyrrolidin-1-yl]-5,6,7,8-tetrahydroquinolin-6-yl]-6-methylthieno[2,3-b]pyridine-2-carboxamide]",50 to 200 nM
5,"CO[C@H](C)CO[C@H]1CN(c2ccc3c(n2)CC[C@H](NC(=O)c2sc4nc(C)ccc4c2N)C3)C[C@@H]1N [Example 482, 3-amino-N-[(6S)-2-[(3S,4S)-3-amino-4-[(2R)-2-methoxypropoxy]pyrrolidin-1-yl]-5,6,7,8-tetrahydroquinolin-6-yl]-6-methylthieno[2,3-b]pyridine-2-carboxamide]",50 to 200 nM
6,"COC[C@@H](C)O[C@@H]1CN(c2ccc3c(n2)CC[C@H](NC(=O)c2sc4nc(C)ccc4c2N)C3)C[C@H]1N [Example 483, 3-amino-N-[(6S)-2-[(3R,4R)-3-amino-4-{[(2R)-1-methoxypropan-2-yl]oxy}pyrrolidin-1-yl]-5,6,7,8-tetrahydroquinolin-6-yl]-6-methylthieno[2,3-b]pyridine-2-carboxamide]",50 to 200 nM
7,"Cc1ccc2c(N)c(C(=O)N[C@H]3CCc4nc(N5C[C@@H](COC(F)(F)F)[C@@H](N)C5)ccc4C3)sc2n1 [Example 484, 3-amino-N-[(6S)-2-[(3R,4R)-3-amino-4-[(trifluoromethoxy)methyl]pyrrolidin-1-yl]-5,6,7,8-tetrahydroquinolin-6-yl]-6-methylthieno[2,3-b]pyridine-2-carboxamide]",200 to 2000 nM
8,"Cc1ccc2c(N)c(C(=O)N[C@H]3CCc4nc(N5C[C@H](COC(F)(F)F)[C@H](N)C5)ccc4C3)sc2n1 [Example 485, 3-amino-N-[(6S)-2-[(3S,4S)-3-amino-4-[(trifluoromethoxy)methyl]pyrrolidin-1-yl]-5,6,7,8-tetrahydroquinolin-6-yl]-6-methylthieno[2,3-b]pyridine-2-carboxamide]",50 to 200 nM
9,"CN[C@H]1CN(c2ccc3c(n2)CC[C@H](NC(=O)c2sc4nc(C)ccc4c2N)C3)C[C@H]1COC [Example 488, 3-amino-N-[(6S)-2-[(3R,4R)-3-(methoxymethyl)-4-(methylamino)pyrrolidin-1-yl]-5,6,7,8-tetrahydroquinolin-6-yl]-6-methylthieno[2,3-b]pyridine-2-carboxamide]",50 to 200 nM
10,"CN[C@@H]1CN(c2ccc3c(n2)CC[C@H](NC(=O)c2sc4nc(C)ccc4c2N)C3)C[C@@H]1COC [Example 489, 3-amino-N-[(6S)-2-[(3S,4S)-3-(methoxymethyl)-4-(methylamino)pyrrolidin-1-yl]-5,6,7,8-tetrahydroquinolin-6-yl]-6-methylthieno[2,3-b]pyridine-2-carboxamide]",50 to 200 nM
11,"CN[C@H]1CN(c2ccc3c(n2)CC[C@H](NC(=O)c2sc4nc(C)cnc4c2N)C3)C[C@@H]1OC [Example 490, 7-amino-N-[(6S)-2-[(3S,4S)-3-methoxy-4-(methylamino)pyrrolidin-1-yl]-5,6,7,8-tetrahydroquinolin-6-yl]-3-methylthieno[2,3-b]pyrazine-6-carboxamide]",50 to 200 nM

# Same assay, conditions: biochemical IC50 range, Ubiquitin-Rhodamine 110 assay, read-out: USP28 A-1(a)
row,Compound,IC50
1,"Cc1ccc2c(N)c(C(=O)N[C@H]3COc4cc(N5C[C@@H](N)[C@]6(C5)OCC[C@H]6C)ccc4C3)sc2n1 (single isomer, unassigned) [Example 612-4]",1 to 50 nM
